Drawing on paper PMC3388095, “Fluorophore Labeled Kinase Detects Ligands That Bind within the MAPK Insert of p38α Kinase” (PLoS ONE, 2012), this text covers Kd for eleven compounds.

T1 sequence (Q16539 whole entry C119S/C162S/S252C): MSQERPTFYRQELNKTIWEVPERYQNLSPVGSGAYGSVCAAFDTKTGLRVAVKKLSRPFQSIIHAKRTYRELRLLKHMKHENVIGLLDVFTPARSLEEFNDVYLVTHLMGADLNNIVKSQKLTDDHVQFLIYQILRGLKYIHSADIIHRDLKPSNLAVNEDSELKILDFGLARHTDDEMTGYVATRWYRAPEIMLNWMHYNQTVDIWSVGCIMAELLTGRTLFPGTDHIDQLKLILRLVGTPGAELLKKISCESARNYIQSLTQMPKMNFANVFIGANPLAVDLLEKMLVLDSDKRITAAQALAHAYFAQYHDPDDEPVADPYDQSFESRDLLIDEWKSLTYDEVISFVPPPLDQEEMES

One assay concerns the target T1, p38α MAPK insert (Homo sapiens, UniProt Q16539, C119S/C162S/S252C).
T1 construct: His-tag with PreScission Protease cleavage site (N); made in house; host or cells: E. coli BL21(DE3) Codon+RIL
Briefly: FLiK direct binding assay, acrylodan-labeled p38α (S252C) MAPK insert / lipid binding site. Particulars: binding to p38α MAPK insert; ratiometric acrylodan emission; each concentration in triplicate. As for the experimental part: The human p38α kinase construct containing the mutations required for specific labeling (C119S/C162S/S252C) as well as wild type p38α were cloned into a pOPINF vector and transformed as an N-terminal His-tag construct with a PreScission Protease cleavage site into BL21(DE3) Codon+RIL E. coli. Protein expression, purification, fluorophore labeling and verification of mono-labeling of the kinase were performed essentially as described previously. Labeling of the mutant p38α protein with thiol-reactive acrylodan was carried out by adding a 1.5∶1 molar excess of the fluorophore (dissolved in DMSO) to the purified protein in 50 mM Hepes Buffer (pH 7.0). The mixture was allowed to react in the dark overnight at 4°C. Unreacted acrylodan was subsequently removed by three cycles of buffer exchange into FLiK Measurement Buffer (50 mM Hepes Buffer, pH 7.4+200 mM NaCl) using a 10k-MWCO Centricon. The protein was concentrated to ∼200 μM, aliquoted and frozen at −80°C. Mono-labeling of the protein was verified by ESI-MS as described previously, [24].
Characterization of the fluorescence response of MAP insert-labeled p38α was carried out as described previously for p38α labeled on the activation loop. […] Briefly, a polystyrene cuvette containing a suspension of 50 nM acrylodan-labeled p38α in FLiK Buffer was excited at 386 nm and emission spectra were measured in the absence and presence of increasing concentrations of 1b. The compound was dissolved in 100% DMSO and delivered in sequential small doses to a single sample. […] Ratiometric fluorescence readouts are advantageous in that they provide an internal correction for small errors in sample volume which can affect signal intensity. All measurements of the cuvettes were made with a JASCO FP-6500 fluorescence spectrophotometer (JASCO GmbH, Germany).
The assay was adapted to high-throughput screening formats which enabled KD values to be determined in black small volume assay plates. Briefly, a dilution series of each compound was first prepared in 100% DMSO at 20X the desired final concentration and 1 μL was transferred to the assay plate. Compounds were then mixed with 19 µL of FLiK Buffer (supplemented with 0.01% Triton X-100) containing acrylodan-labeled p38α (100 nM). The final concentration of compound in the dilution series ranged from 0–50 μM (5% v/v DMSO final). Plates were covered with an adhesive aluminum foil and incubated for 30 min at RT prior to measurement of emission intensities at 470 and 520 nm using a Tecan Safire^2 plate reader. […] Binding curves were plotted using the ratio R = I520/I470 to determine the KD.
In turn, `O=[N+]([O-])c1ccc2c(NC3CC3)nc(-c3ccccc3)nc2c1` [1a, N-Cyclopropyl-7-nitro-2-phenyl-4-quinazolinamine] came in with a dissociation constant Kd of 1900 ± 200 nM.
Same read-out and setting: then `O=[N+]([O-])c1ccc2c(NC3CC3)nc(-c3ccncc3)nc2c1` [5a, N-Cyclopropyl-7-nitro-2-(4-pyridinyl)-4-quinazolinamine], with more than 10000 nM.
`Nc1ccc2c(NC3CC3)nc(-c3ccncc3)nc2c1` [5b, N^4-Cyclopropyl-2-(4-pyridinyl)-4,7-quinazolinediamine] showed a Kd of more than 50000 nM.
On the same count and under the same terms, then `O=[N+]([O-])c1ccc2c(NCC3CC3)nc(-c3ccccc3)nc2c1` [6a, N-(Cyclopropylmethyl)-7-nitro-2-phenyl-4-quinazolinamine], with 460 ± 210 nM; and `Nc1ccc2c(NCC3CC3)nc(-c3ccccc3)nc2c1` [6b, N^4-(Cyclopropylmethyl)-2-phenyl-4,7-quinazolinediamine], with 4700 ± 700 nM.
For the compound `O=[N+]([O-])c1ccc2c(NCc3ccccc3)nc(-c3ccccc3)nc2c1` [7a, N-Benzyl-7-nitro-2-phenyl-4-quinazolinamine], the Kd amounted to 320 ± 90 nM.
On the same count and under the same terms, under `Nc1ccc2c(NCc3ccccc3)nc(-c3ccccc3)nc2c1` [7b, N^4-Benzyl-2-phenyl-4,7-quinazolinediamine] stands 2200 ± 800 nM.
Compound `O=[N+]([O-])c1ccc2c(NCc3ccccc3)nc(-c3ccncc3)nc2c1` [7c, N-Benzyl-7-nitro-2-(4-pyridinyl)-4-quinazolinamine] gave a Kd of 810 ± 100 nM.
On the same count and under the same terms, then `Nc1ccc2c(NCCc3ccccc3)nc(-c3ccccc3)nc2c1` [8b, 2-Phenyl-N^4-(2-phenylethyl)-4,7-quinazolinediamine], with 1200 ± 300 nM; and `O=[N+]([O-])c1ccc2c(NCCc3ccccc3)nc(-c3ccncc3)nc2c1` [8c, 7-Nitro-N-(2-phenylethyl)-2-(4-pyridinyl)-4-quinazolinamine], with 1800 ± 300 nM.

Staying with this assay, now noted: binding to p38α MAPK insert; value as printed in text.
Consider `O=[N+]([O-])c1ccc2c(NCCc3ccccc3)nc(-c3ccccc3)nc2c1` [8a, 7-Nitro-2-phenyl-N-(2-phenylethyl)-4-quinazolinamine], for which the Kd stood at 280 nM.

A word on the Kd: it is a measure of binding affinity in units of concentration. A high value points to lower affinity.
